The values that follow are results of earlier work, collected in patent US8323615B2, “Methods of processing multi-phasic dispersions” (Baxter International Inc., priority 2008, dated 2012).

Counter-ions that a name gives are not always drawn. Like-named read-outs stand apart in the source and are kept apart here. Bounds are passed on as bounds.

One series deals with rats. To be noted: for LD50, cells marked "I": value followed by undefined mark "I".
The conditions of series [1]: ambient temperature such as 20-25° C.
The mark [2] stands for this setting: rats, oral, all at once (acute toxicity), minimal amount reported in the literature.

Turning to `CC(Cl)(Cl)Cl` [1,1,1-trichloroethane], the LD50 in the series with rats (setting [2]) was 9.6 g/kg body weight; with rats (rats, oral, all at once (acute toxicity), minimal amount reported in the literature, listed as 1,1,1-TCA), 16 g/kg body weight. Moreover, the entries for the “Sol. (solubility of water in the liquid)” value in series [1] (unit not given) and in series [1] (parts per million by weight) were 0.15 g/100 g and 170 ppm, respectively.
Regarding `ClC=C(Cl)Cl` [1,1,2-trichloroethylene], the LD50 with rats (setting [2]) is reported as 2.4 g/kg body weight. Moreover, in series [1] (unit not given), the “Sol. (solubility of water in the liquid)” value was 0.11 g/100 g.
Take `FC(F)(Cl)C(F)(F)Cl` [1,2-dichlorotetrafluoroethane]: the LD50 in the series on rats (setting [2]) is reported as 2.25 g/kg body weight. The “Sol. (solubility of water in the liquid)” value in series [1] (unit not given) is listed as 0.13 g/100 g.
Turning to `OCC(F)(F)F` [2,2,2-trifluoroethanol], the LD50 in the series with rats (setting [2]) is 0.24 g/kg body weight.
For `C[S+](C)[O-]` [DMSO, dimethylsulfoxide], the LD50 in the series with rats (setting [2]) was 18 g/kg body weight.
With `FC(F)(F)C(F)(F)C(F)(F)C(F)(F)N(C(F)(F)C(F)(F)C(F)(F)C(F)(F)F)C(F)(F)C(F)(F)C(F)(F)C(F)(F)F` [Fluorinert ® FC-43, perfluorotributylamine], the LD50 with rats (setting [2]) is given as 10 g/kg body weight. In series [1] (parts per million by weight), the “Sol. (solubility of water in the liquid)” value was 7 ppm.
As for `FC(F)(F)C(F)(F)C(F)(F)C(F)(F)C(F)(F)N(C(F)(F)C(F)(F)C(F)(F)C(F)(F)C(F)(F)F)C(F)(F)C(F)(F)C(F)(F)C(F)(F)C(F)(F)F` [Fluorinert ® FC-70, perfluorotriamylamine], the LD50 entry in the series on rats (setting [2]) is “NTO”. In addition, in series [1] (parts per million by weight), the “Sol. (solubility of water in the liquid)” value is reported as 8 ppm.
Turning to `NC=O` [Formamide], the LD50 in the series with rats (setting [2]) is recorded as 5.5 g/kg body weight.
As for `O=Cc1ccco1` [Furfural], in the series on rats (rat, in vivo, po), the LD50 was 0.05 g/kg body weight.
As to `CC(F)(Cl)Cl` [Genesolv ® 2000 HFC-141b], the LD50 in the series with rats (setting [2]) is recorded as more than 5 g/kg body weight.
In the case of `FC(F)CC(F)(F)F` [Genesolv ® S-F, 1,1,1,3,3-pentafluoropropane], the “LD50, cells marked "I"” value with rats is recorded as more than 200 I g/kg body weight. In addition, the “Sol. (solubility of water in the liquid)” value in series [1] (parts per million by weight) was 1600 ppm.
In the case of `FCC(F)(F)F` [Genetron ® HFC-134a], the “LD50, cells marked "I"” value in the series on rats is on record as 62 I g/kg body weight. In series [1] (in %), the “Sol. (solubility of water in the liquid)” value is 0.11%.
Take `OCC(O)CO` [Glycerol]: the LD50 in the series on rats (rat, in vivo, po) is listed as 13 g/kg body weight.
Turning to `FC(C(F)C(F)(F)C(F)(F)F)C(F)(F)F` (stereo not drawn) [HFC-4310mee], the “LD50, cells marked "I"” value in the series with rats is given as 11 I g/kg body weight. Besides, in series [1] (parts per million by weight), the “Sol. (solubility of water in the liquid)” value was 400 ppm.
For `CN1CCCC1=O` [N-methylpyrrolidone], in the series with rats (setting [2]), the LD50 is 4.15 g/kg body weight. Also, in series [1] (in %), the “Sol. (solubility of water in the liquid)” value is 100%.
With `O=C(C(F)(F)C(F)(F)F)C(F)(C(F)(F)F)C(F)(F)F` [Novec ™ 1230, dodecafluoro-2-methylpentan-3-one], in the series with rats, the “LD50, cells marked "I"” value was more than 100 I g/kg body weight.
For the molecule `COC(F)(F)C(F)(F)C(F)(F)F` [Novec ™ HFE-7000, 1-methoxyheptafluoropropane], the LD50 with rats (setting [2]) is more than 2 g/kg body weight. Further, the “Sol. (solubility of water in the liquid)” value in series [1] (parts per million by weight) is 60 ppm.
Regarding `CCOC(F)(F)C(F)(F)C(F)(F)C(F)(F)F` [Novec ™ HFE-7200, ethoxynonafluorobutane], in the series with rats (setting [2]), the LD50 is reported as more than 5 g/kg body weight. In series [1] (parts per million by weight), the “Sol. (solubility of water in the liquid)” value is listed as 92 ppm.
With `CCOC(F)(C(F)(F)C(F)(F)C(F)(F)F)C(F)(C(F)(F)F)C(F)(F)F` (stereo not drawn) [Novec ™ HFE-7500, 2-trifluoromethyl-3-ethoxydodecafluorohexane], the LD50 in the series with rats (setting [2]) was more than 2 g/kg body weight.
As to `FC(F)(F)C(F)(F)C(F)(F)C(F)(F)C(F)(F)C(F)(F)F` [PF-5060 & PF-5060DL], the LD50 in the series on rats (setting [2]) is reported as more than 5 g/kg body weight.
For the molecule `FC(F)(F)C(F)(F)C(F)(F)C(F)(F)C(F)(F)C(F)(F)F` [Perfluorohexane], in the series with rats (setting [2]), the LD50 is 5 g/kg body weight. The “Sol. (solubility of water in the liquid)” value in series [1] (unit not given) is 0.03 g/100 g; in series [1] (parts per million by weight), 10 ppm.
In the case of `O=S1(=O)CCCC1` [Sulfolane], in the series with rats (setting [2]), the LD50 is reported as 1.94 g/kg body weight.
On to `C1OCOCO1` [Trioxane], for which, in the series on rats (setting [2]), the LD50 is on record as 3.2 g/kg body weight. Moreover, the “Sol. (solubility of water in the liquid), in words” value in series [1] was “soluble”.
For `S=C=S` [carbon disulfide], the LD50 in the series on rats (rat, in vivo, po) is 3.2 g/kg body weight. The “Sol. (solubility of water in the liquid)” value in series [1] (in %) is less than 1%.
As to `ClC(Cl)(Cl)Cl` [carbon tetrachloride], the LD50 in the series with rats (setting [2]) is given as 2.3 g/kg body weight. Moreover, the “Sol. (solubility of water in the liquid)” value in series [1] (unit not given) was 0.05 g/100 g.
As for `CCOC(=O)C(=O)OCC` [diethyl oxalate], the LD50 with rats (rat, in vivo, po) is 0.4 g/kg body weight.
Turning to `COCCOCCO` [diethylene glycol methyl ether], the “Sol. (solubility of water in the liquid)” value in series [1] (in %) is on record as 100%.
With `OCCOCCO` [diethylene glycol], in the series with rats (setting [2]), the LD50 was 13 g/kg body weight.
Regarding `c1ccc(Oc2ccccc2)cc1` [diphenyl ether], the LD50 in the series with rats (setting [2]) is 3.37 g/kg body weight.
Regarding `O=C1OCCO1` [ethylene carbonate], the LD50 in the series with rats (setting [2]) is given as 10 g/kg body weight.
As for `OCCOCc1ccccc1` [ethylene glycol monobenzyl ether], the LD50 in the series with rats (setting [2]) was 1.19 g/kg body weight. Further, the “Sol. (solubility of water in the liquid)” value in series [1] (unit not given) is recorded as 4 g/100 g.
Consider `OCc1ccco1` [furfuryl alcohol], for which the LD50 with rats (rat, in vivo, po) is recorded as 0.275 g/kg body weight.
As for `O=C1CCCO1` [gamma-butyrolactone], in the series with rats (rat, in vivo, po), the LD50 is 1.54 g/kg body weight.
In the case of `COC(=O)C(C)O` (stereo not drawn) [lactic acid, methyl ester], the LD50 in the series with rats (setting [2]) is given as 2 g/kg body weight. The “Sol. (solubility of water in the liquid), in words” value in series [1] is “decomp”.
As for `CC(O)C(=O)O` (stereo not drawn) [lactic acid], the LD50 in the series on rats (rat, in vivo, po) was 3.7, 3.5 g/kg body weight; in the series with rats (setting [2]), 3.7, 3.5 g/kg body weight.
As to `ClCCl` [methylene chloride], the LD50 in the series with rats (setting [2]) is given as 1.6 g/kg body weight. For the same molecule, the “Sol. (solubility of water in the liquid)” value in series [1] (unit not given) is 1.32 g/100 g.
With `Fc1cc(F)c(F)c(F)c1F` [pentafluorobenzene], the LD50 in the series on rats (rat, in vivo, po) is listed as 2 g/kg body weight.
For `OCC(F)(F)C(F)(F)F` [pentafluoropropyl alcohol], in the series with rats (setting [2]), the LD50 was 1 g/kg body weight. The “Sol. (solubility of water in the liquid), in words” value in series [1] is recorded as “soluble”.
Regarding `CC1COC(=O)O1` (stereo not drawn) [propylene carbonate], the LD50 in the series on rats (setting [2]) was 29 g/kg body weight. For the same molecule, the “Sol. (solubility of water in the liquid)” value in series [1] (in %) was 23%.
As to `CC(O)CO` (stereo not drawn) [propylene glycol], the LD50 in the series on rats (setting [2]) was 22 g/kg body weight.
For the molecule “methoxynonafluorobutane [Novec ™ HFE-7100]”, the LD50 in the series on rats (setting [2]) is more than 5 g/kg body weight. Further, the “Sol. (solubility of water in the liquid)” value in series [1] (parts per million by weight) is reported as 95 ppm.
Consider “tetrahydrofurfuryl alcohol polyethyleneglycol ether [Glycofurol]”, for which the LD50 in the series with rats (setting [2]) was 7.8 g/kg body weight. The “Sol. (solubility of water in the liquid)” value in series [1] (in %) is more than 50%.
With trimethylene glycol, in the series on rats (rat, in vivo, po), the LD50 is 4.77 g/kg body weight.
